ChEMBL document CHEMBL1201862, “PubChem BioAssay data set” (2004)
Active and inactive are the calls of the source.

What was measured:
[1] = biological target: T1, Carboxy-terminal domain RNA polymerase II polypeptide A small phosphatase 1 (Homo sapiens, UniProt Q9GZU7); assay: CTDSP1 inhibitors, concentration-response, biochemical, absorbance readout, ultra-high-throughput screen actives (AID 540297); assay type: functional
T1 sequence (Q9GZU7 whole entry): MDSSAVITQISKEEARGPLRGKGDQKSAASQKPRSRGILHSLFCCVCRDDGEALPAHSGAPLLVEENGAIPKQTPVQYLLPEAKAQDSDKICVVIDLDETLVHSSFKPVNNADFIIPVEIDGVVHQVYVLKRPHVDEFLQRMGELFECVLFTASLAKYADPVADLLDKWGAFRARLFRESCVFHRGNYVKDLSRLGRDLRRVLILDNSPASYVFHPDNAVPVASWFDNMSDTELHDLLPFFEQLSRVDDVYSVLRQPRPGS

[2] = general mammalian cell viability loss – inhibitor set, cherry-pick, set 2, cytotoxicity control for miR-122 modulator project, dose response (AID 720697); assay type: functional, cell-based
Cytochrome P450 2C9 = Cytochrome P450 2C9 (Homo sapiens, UniProt P11712)
Fatty acid synthase [3] = biological target: T2, Fatty acid synthase (Homo sapiens, UniProt P49327); assay: inhibition of human FAS-TE enzyme activity – biochemical, kinetic fluorescence intensity, dose response (AID 624326); assay type: functional;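 note: rate of fluorescence rise from hydrolysis of a fluorogenic O-methyl fluorescein ester substrate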
Fatty acid synthase [4] = biological target: T2, Fatty acid synthase; assay: inhibition of human FAS-TE enzyme activity – biochemical, endpoint fluorescence intensity, uHTS hits, dose response (AID 624327); assay type: functional;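 note: fluorescence from hydrolysis of an O-methyl fluorescein acyl ester substrate by the enzyme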
[5] = biological target: T3, High affinity choline transporter 1 (Homo sapiens, UniProt Q9GZV3); assay: human choline transporter blockers, potency – cell-based, 5-point CRC, membrane potential dye, dose response (AID 504840); assay type: functional
T3 sequence (Q9GZV3 whole entry): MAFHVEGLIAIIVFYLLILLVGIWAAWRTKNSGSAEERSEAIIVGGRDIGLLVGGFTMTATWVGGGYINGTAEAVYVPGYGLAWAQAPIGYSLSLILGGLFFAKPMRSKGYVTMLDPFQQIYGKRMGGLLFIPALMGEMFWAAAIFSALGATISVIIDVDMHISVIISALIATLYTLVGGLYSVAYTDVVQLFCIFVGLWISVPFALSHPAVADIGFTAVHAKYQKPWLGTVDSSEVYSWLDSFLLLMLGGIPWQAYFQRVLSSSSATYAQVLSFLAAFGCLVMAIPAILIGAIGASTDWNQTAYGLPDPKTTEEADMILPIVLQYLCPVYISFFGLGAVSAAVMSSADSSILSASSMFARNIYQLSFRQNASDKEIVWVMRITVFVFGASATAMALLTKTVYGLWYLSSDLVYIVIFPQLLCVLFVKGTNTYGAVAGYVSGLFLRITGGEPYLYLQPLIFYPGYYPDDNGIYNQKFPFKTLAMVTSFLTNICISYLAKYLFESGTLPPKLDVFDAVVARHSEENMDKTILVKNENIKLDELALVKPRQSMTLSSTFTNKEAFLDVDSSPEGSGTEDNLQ

HeLa = assay: ATP-based viability loss in HeLa cells – cell-based, CellTiter-Glo luminescence, cherry-pick samples, cytotoxicity control for MITF activator project, dose response (AID 540259); assay type: functional; conditions: Homo sapiens
[6] = biological target: DNA dC->dU-editing enzyme APOBEC-3G (Homo sapiens, UniProt Q9HC16); assay: Dose Response confirmation of small molecule APOBEC3G DNA Deaminase Inhibitors via a fluorescence-based single-stranded DNA deaminase assay. [Related pubchem assays (depositor defined):AID493012, AID493028]; assay type: functional
[7] = biological target: Induced myeloid leukemia cell differentiation protein Mcl-1 (Homo sapiens, UniProt Q07820); assay type: functional
Paired box protein Pax-8 = Paired box protein Pax-8 (Homo sapiens, UniProt Q06710); assay: PAX8 transcriptional activity inhibition in RMG-I – RMG-I cells, luciferase, cherry-pick, dose response (AID 687027); assay type: functional, cell-based;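 note: luciferase reporter driven by Pax8 target thyroperoxidase promoter measured by SteadyGlo luminescence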
[8] = OVCAR8 cell viability loss – plate reader, dry powder samples, PAX8 project, dose response (AID 743197); assay type: functional, cell-based; conditions: OVCAR-8

T2 sequence (P49327 whole entry): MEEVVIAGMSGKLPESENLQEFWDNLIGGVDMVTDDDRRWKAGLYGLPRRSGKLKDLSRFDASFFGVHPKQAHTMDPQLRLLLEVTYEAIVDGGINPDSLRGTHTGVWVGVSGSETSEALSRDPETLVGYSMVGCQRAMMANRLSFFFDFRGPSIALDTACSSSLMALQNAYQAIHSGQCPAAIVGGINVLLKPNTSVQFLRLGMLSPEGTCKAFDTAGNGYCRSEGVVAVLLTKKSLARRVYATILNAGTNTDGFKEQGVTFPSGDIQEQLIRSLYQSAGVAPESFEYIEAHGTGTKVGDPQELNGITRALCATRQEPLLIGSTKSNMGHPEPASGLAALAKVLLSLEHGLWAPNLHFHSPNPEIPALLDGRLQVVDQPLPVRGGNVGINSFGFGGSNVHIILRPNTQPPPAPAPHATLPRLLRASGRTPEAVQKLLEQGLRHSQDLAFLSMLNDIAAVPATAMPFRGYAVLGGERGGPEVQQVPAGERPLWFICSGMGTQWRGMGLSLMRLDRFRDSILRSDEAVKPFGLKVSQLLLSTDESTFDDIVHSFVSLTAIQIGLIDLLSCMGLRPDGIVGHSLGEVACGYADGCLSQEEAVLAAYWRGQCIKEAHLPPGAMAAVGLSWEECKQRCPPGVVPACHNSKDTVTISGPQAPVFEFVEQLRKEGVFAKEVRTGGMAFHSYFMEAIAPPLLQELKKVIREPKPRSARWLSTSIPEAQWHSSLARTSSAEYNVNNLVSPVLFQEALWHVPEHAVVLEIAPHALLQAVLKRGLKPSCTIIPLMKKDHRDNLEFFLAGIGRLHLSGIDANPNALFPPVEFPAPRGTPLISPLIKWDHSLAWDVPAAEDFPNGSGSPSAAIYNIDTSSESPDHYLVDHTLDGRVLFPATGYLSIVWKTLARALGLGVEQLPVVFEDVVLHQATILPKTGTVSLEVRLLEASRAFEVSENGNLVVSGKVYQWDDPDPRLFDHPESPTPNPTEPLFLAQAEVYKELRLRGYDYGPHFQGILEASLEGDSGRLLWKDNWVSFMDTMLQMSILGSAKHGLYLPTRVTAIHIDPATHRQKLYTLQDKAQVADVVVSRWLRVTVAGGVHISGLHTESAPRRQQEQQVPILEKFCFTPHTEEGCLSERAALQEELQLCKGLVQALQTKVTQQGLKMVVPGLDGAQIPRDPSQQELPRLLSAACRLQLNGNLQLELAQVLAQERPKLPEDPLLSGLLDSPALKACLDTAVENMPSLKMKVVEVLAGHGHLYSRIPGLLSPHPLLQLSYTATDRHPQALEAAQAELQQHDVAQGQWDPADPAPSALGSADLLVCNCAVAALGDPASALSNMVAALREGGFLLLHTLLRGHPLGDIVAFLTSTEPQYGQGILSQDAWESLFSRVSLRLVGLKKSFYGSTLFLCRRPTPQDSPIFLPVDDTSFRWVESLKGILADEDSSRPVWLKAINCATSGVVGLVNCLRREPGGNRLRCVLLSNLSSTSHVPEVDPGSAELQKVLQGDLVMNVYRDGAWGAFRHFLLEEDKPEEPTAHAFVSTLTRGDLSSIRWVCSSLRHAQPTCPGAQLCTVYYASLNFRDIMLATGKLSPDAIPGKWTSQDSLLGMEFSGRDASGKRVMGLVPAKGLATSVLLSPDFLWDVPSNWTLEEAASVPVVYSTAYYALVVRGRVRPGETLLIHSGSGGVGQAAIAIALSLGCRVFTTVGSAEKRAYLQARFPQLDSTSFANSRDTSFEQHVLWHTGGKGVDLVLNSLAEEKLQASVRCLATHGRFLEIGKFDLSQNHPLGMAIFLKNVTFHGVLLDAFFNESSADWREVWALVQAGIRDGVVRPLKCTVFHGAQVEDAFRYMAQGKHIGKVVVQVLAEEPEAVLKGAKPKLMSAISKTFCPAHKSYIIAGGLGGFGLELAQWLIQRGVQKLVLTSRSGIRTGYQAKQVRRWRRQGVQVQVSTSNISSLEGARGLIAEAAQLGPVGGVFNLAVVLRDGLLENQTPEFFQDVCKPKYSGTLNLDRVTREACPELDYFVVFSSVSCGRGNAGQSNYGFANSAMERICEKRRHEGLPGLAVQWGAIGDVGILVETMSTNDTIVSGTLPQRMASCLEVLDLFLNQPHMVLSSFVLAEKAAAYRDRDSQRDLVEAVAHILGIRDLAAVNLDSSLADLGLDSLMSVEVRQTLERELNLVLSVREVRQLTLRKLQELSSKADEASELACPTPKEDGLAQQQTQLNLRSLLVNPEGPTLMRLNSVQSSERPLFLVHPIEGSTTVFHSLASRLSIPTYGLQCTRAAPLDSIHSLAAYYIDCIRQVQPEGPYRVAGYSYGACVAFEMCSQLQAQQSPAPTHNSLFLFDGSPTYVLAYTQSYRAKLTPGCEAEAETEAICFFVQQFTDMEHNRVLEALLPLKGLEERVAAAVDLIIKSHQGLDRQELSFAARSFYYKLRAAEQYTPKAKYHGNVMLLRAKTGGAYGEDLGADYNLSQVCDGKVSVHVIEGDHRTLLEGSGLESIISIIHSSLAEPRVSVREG
Paired box protein Pax-8, sequence (Q06710 whole entry): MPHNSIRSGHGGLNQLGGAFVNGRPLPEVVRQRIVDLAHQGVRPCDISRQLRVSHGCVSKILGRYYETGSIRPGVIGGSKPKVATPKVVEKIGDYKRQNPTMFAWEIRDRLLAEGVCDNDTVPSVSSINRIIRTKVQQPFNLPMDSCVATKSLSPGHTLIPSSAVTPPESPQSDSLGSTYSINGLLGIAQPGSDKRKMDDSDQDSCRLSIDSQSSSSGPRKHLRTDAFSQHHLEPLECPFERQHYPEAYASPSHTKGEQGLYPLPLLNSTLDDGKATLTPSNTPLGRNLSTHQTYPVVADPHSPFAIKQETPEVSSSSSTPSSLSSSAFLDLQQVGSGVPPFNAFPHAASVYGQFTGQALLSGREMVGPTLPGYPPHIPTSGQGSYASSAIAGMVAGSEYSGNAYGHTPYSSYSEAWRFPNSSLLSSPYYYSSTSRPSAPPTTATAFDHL
DNA dC->dU-editing enzyme APOBEC-3G, sequence (Q9HC16 whole entry): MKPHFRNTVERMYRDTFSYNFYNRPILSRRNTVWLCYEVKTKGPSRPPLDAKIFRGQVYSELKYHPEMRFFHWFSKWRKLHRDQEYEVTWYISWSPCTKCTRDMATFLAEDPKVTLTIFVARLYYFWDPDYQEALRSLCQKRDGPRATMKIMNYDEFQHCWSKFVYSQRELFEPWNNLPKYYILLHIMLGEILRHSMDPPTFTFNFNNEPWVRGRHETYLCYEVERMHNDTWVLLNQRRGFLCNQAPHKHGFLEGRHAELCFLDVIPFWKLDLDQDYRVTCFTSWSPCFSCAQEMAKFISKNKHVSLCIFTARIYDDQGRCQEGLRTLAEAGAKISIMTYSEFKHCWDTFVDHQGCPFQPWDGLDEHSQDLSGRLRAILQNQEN
Induced myeloid leukemia cell differentiation protein Mcl-1, sequence (Q07820 whole entry): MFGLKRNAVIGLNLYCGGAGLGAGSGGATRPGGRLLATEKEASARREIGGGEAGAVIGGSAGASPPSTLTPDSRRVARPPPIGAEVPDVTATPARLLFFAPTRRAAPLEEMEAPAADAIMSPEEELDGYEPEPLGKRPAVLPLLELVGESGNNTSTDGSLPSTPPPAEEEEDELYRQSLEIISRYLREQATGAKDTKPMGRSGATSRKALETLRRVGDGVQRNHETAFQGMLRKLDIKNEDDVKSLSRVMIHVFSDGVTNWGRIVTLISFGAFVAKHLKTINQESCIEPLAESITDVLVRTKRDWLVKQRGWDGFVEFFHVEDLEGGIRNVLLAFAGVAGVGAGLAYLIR
Cytochrome P450 2C9, sequence (P11712 whole entry): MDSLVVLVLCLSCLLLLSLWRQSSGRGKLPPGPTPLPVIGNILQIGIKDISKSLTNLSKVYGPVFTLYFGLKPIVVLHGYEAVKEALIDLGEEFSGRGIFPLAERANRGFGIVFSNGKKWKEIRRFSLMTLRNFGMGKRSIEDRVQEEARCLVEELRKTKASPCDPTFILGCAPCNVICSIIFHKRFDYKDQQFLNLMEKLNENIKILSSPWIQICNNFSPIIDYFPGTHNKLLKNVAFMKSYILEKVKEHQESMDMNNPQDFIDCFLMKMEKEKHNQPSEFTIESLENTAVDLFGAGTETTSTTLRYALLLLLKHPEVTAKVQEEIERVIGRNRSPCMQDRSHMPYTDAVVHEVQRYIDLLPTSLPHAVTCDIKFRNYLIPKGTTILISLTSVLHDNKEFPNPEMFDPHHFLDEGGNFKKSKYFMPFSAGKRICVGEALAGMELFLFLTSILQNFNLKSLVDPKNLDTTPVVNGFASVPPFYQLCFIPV

## COCCN1C(=O)c2oc3ccccc3c(=O)c2C1c1ccc(OC)c(OC)c1 (stereo not drawn)
[1]
  IC50: 5.26 µM (active)

## CCCNC(=O)Nc1ccc2c(c1)C(=O)N(C)[C@@H]1CC[C@@H](CC(=O)NCC3CCCCC3)O[C@H]1CO2
[2]
  AC50: 2.28 µM (active)

## C[N+]1(CCOc2ccc([N+](=O)[O-])cc2)CCOCC1.[I-]
Cytochrome P450 2C9
  AC50: inconclusive
[1]
  IC50: 4.86 µM (active)

## Cc1cc(Cl)ccc1NC(=O)COC(=O)c1cc([N+](=O)[O-])ccc1N1CCOCC1
Fatty acid synthase [3]
  IC50: 2.13 µM (active)
Fatty acid synthase [4]
  IC50: 2.55 µM (active)

## COC(=O)c1cc(C(=O)OCC(=O)NC2CCCC2)cc([N+](=O)[O-])c1
Fatty acid synthase [3]
  IC50: 9.42 µM (active)
Fatty acid synthase [4]
  IC50: 8.82 µM (active)

## O=C1CC(c2cccc([N+](=O)[O-])c2)c2cc3c(cc2N1)CCC3 (stereo not drawn)
Fatty acid synthase [3]
  IC50: 15.9 µM (active)
Fatty acid synthase [4]
  IC50: 10.9 µM (active)

## Cc1ccc(-c2cccc(CN3CCN(C(C)C)C(CCO)C3)c2)o1 (stereo not drawn)
[5]
  IC50: 7.85 µM (active)

## Cn1c(SCc2ccccc2Cl)nc2ccccc21
HeLa
  AC50: 75 µM (active)

## CCn1c(S)nnc1CCCCc1nnc(S)n1CC
[6]
  IC50: 25.8 µM (active)

## COc1ccc(N2C(=O)CC(Sc3n[nH]c(-c4ccc(C)cc4)n3)C2=O)cc1 (stereo not drawn)
[6]
  IC50: 21.2 µM (active)

## CC(C)OC(=O)Cn1cnc2ccc(Br)cc2c1=O
[7]
  IC50: 24.1 µM (not active)

## O=C(COC(=O)c1cccnc1Cl)NCc1ccco1
[1]
  IC50: 12.4 µM (active)

## COc1ccc(-c2ccc3c(c2)[C@@H]2[C@@H](CCN2C(=O)C2CCCC2)[C@H](CO)N3C)cc1
Paired box protein Pax-8
  AC50: 14.2 µM (active)
[8]
  AC50: > 70 µM (inactive)

## Cc1ccc(SCC2=NN(c3nc(C)cc(C)n3)C(=O)C2)cc1
[5]
  IC50: 10.5 µM (active)

## C[C@@H]1CN([C@@H](C)CO)C(=O)c2cc(NS(=O)(=O)c3ccc(F)cc3)ccc2O[C@@H]1CN(C)Cc1ccc(C(F)(F)F)cc1
Paired box protein Pax-8
  AC50: 15.3 µM (active)
[8]
  AC50: 49.5 µM (active)

## Cc1nc(C(C)NC(=O)CCc2nnc(CCCc3ccccc3)o2)c(C)s1 (stereo not drawn)
HeLa
  AC50: 314 µM (active)

## O=C(N/N=C/C1CC=CCC1)c1cc(-c2cccnc2)nc2ccccc12 (stereo not drawn)
[5]
  IC50: 15.1 µM (active)
